Test results published in PubChem BioAssay AID1259407 (Chemical Carcinogenesis Research Information System (CCRIS), 2018).
Calls of active or inactive are those of the source. The rule behind the calls is not given here.

Test system: CCRIS mutagenicity, Ames/micronucleus/aberration tests
Assay: CCRIS mutagenicity studies
[1] = Test System: AMES SALMONELLA TYPHIMURIUM, Strain/Indicator: TA97, Metabolic Activation: NONE, Method: PREINCUBATION
[2] = Test System: AMES SALMONELLA TYPHIMURIUM, Strain/Indicator: TA98, Metabolic Activation: NONE, Method: PREINCUBATION
[3] = Test System: AMES SALMONELLA TYPHIMURIUM, Strain/Indicator: TA100, Metabolic Activation: NONE, Method: PREINCUBATION
[4] = Test System: AMES SALMONELLA TYPHIMURIUM, Strain/Indicator: TA102, Metabolic Activation: NONE, Method: PREINCUBATION
[5] = Test System: AMES SALMONELLA TYPHIMURIUM, Strain/Indicator: TA98, Metabolic Activation: RAT, LIVER, S-9, PCB, Method: PREINCUBATION

Measured: mutagenic call

Cc1ccc(C(=O)c2cc(O)c(O)c([N+](=O)[O-])c2)cc1
inactive: [1] inactive; negative | Test System: AMES SALMONELLA TYPHIMURIUM, Strain/Indicator: TA97, Metabolic Activation: NONE, Method: STANDARD PLATE inactive; negative | Test System: AMES SALMONELLA TYPHIMURIUM, Strain/Indicator: TA97, Metabolic Activation: RAT, LIVER, S-9, PHENOBARBITAL AND BETA-NAPHTHOFLAVONE, Method: PREINCUBATION inactive; negative | Test System: AMES SALMONELLA TYPHIMURIUM, Strain/Indicator: TA97, Metabolic Activation: RAT, LIVER, S-9, PHENOBARBITAL AND BETA-NAPHTHOFLAVONE, Method: STANDARD PLATE inactive; negative | [2] inactive; negative | Test System: AMES SALMONELLA TYPHIMURIUM, Strain/Indicator: TA98, Metabolic Activation: NONE, Method: STANDARD PLATE inactive; negative | Test System: AMES SALMONELLA TYPHIMURIUM, Strain/Indicator: TA98, Metabolic Activation: RAT, LIVER, S-9, PHENOBARBITAL AND BETA-NAPHTHOFLAVONE, Method: PREINCUBATION inactive; negative | Test System: AMES SALMONELLA TYPHIMURIUM, Strain/Indicator: TA98, Metabolic Activation: RAT, LIVER, S-9, PHENOBARBITAL AND BETA-NAPHTHOFLAVONE, Method: STANDARD PLATE inactive; negative | [3] inactive; negative | Test System: AMES SALMONELLA TYPHIMURIUM, Strain/Indicator: TA100, Metabolic Activation: NONE, Method: STANDARD PLATE inactive; negative | Test System: AMES SALMONELLA TYPHIMURIUM, Strain/Indicator: TA100, Metabolic Activation: RAT, LIVER, S-9, PHENOBARBITAL AND BETA-NAPHTHOFLAVONE, Method: PREINCUBATION inactive; negative | Test System: AMES SALMONELLA TYPHIMURIUM, Strain/Indicator: TA100, Metabolic Activation: RAT, LIVER, S-9, PHENOBARBITAL AND BETA-NAPHTHOFLAVONE, Method: STANDARD PLATE inactive; negative | [4] inactive; negative | Test System: AMES SALMONELLA TYPHIMURIUM, Strain/Indicator: TA102, Metabolic Activation: NONE, Method: STANDARD PLATE inactive; negative | Test System: AMES SALMONELLA TYPHIMURIUM, Strain/Indicator: TA102, Metabolic Activation: RAT, LIVER, S-9, PHENOBARBITAL AND BETA-NAPHTHOFLAVONE, Method: PREINCUBATION inactive; negative | Test System: AMES SALMONELLA TYPHIMURIUM, Strain/Indicator: TA102, Metabolic Activation: RAT, LIVER, S-9, PHENOBARBITAL AND BETA-NAPHTHOFLAVONE, Method: STANDARD PLATE inactive; negative | Test System: AMES SALMONELLA TYPHIMURIUM, Strain/Indicator: TA1535, Metabolic Activation: NONE, Method: PREINCUBATION inactive; negative | Test System: AMES SALMONELLA TYPHIMURIUM, Strain/Indicator: TA1535, Metabolic Activation: NONE, Method: STANDARD PLATE inactive; negative | Test System: AMES SALMONELLA TYPHIMURIUM, Strain/Indicator: TA1535, Metabolic Activation: RAT, LIVER, S-9, PHENOBARBITAL AND BETA-NAPHTHOFLAVONE, Method: PREINCUBATION inactive; negative | Test System: AMES SALMONELLA TYPHIMURIUM, Strain/Indicator: TA1535, Metabolic Activation: RAT, LIVER, S-9, PHENOBARBITAL AND BETA-NAPHTHOFLAVONE, Method: STANDARD PLATE inactive; negative | Test System: AMES SALMONELLA TYPHIMURIUM, Strain/Indicator: TA1537, Metabolic Activation: NONE, Method: PREINCUBATION inactive; negative | Test System: AMES SALMONELLA TYPHIMURIUM, Strain/Indicator: TA1537, Metabolic Activation: NONE, Method: STANDARD PLATE inactive; negative | Test System: AMES SALMONELLA TYPHIMURIUM, Strain/Indicator: TA1537, Metabolic Activation: RAT, LIVER, S-9, PHENOBARBITAL AND BETA-NAPHTHOFLAVONE, Method: PREINCUBATION inactive; negative | Test System: AMES SALMONELLA TYPHIMURIUM, Strain/Indicator: TA1537, Metabolic Activation: RAT, LIVER, S-9, PHENOBARBITAL AND BETA-NAPHTHOFLAVONE, Method: STANDARD PLATE inactive; negative | Test System: AMES SALMONELLA TYPHIMURIUM, Strain/Indicator: TA1538, Metabolic Activation: NONE, Method: PREINCUBATION inactive; negative | Test System: AMES SALMONELLA TYPHIMURIUM, Strain/Indicator: TA1538, Metabolic Activation: NONE, Method: STANDARD PLATE inactive; negative | Test System: AMES SALMONELLA TYPHIMURIUM, Strain/Indicator: TA1538, Metabolic Activation: RAT, LIVER, S-9, PHENOBARBITAL AND BETA-NAPHTHOFLAVONE, Method: PREINCUBATION inactive; negative | Test System: AMES SALMONELLA TYPHIMURIUM, Strain/Indicator: TA1538, Metabolic Activation: RAT, LIVER, S-9, PHENOBARBITAL AND BETA-NAPHTHOFLAVONE, Method: STANDARD PLATE inactive; negative | Test System: CHINESE HAMSTER V-79, Strain/Indicator: V-79 (HPRT)/6-THIOGUANINE, Metabolic Activation: NONE, Method: SUSPENSION/PLATE inactive; negative | Test System: CHINESE HAMSTER V-79, Strain/Indicator: V-79 (HPRT)/6-THIOGUANINE, Metabolic Activation: RAT, LIVER, S-9, AROCLOR 1254, Method: SUSPENSION/PLATE inactive; negative | Test System: E. COLI, Strain/Indicator: WP2 UVRA, Metabolic Activation: NONE, Method: PREINCUBATION inactive; negative | Test System: E. COLI, Strain/Indicator: WP2 UVRA, Metabolic Activation: NONE, Method: STANDARD PLATE inactive; negative | Test System: E. COLI, Strain/Indicator: WP2 UVRA, Metabolic Activation: RAT, LIVER, S-9, PHENOBARBITAL AND BETA-NAPHTHOFLAVONE, Method: PREINCUBATION inactive; negative | Test System: E. COLI, Strain/Indicator: WP2 UVRA, Metabolic Activation: RAT, LIVER, S-9, PHENOBARBITAL AND BETA-NAPHTHOFLAVONE, Method: STANDARD PLATE inactive; negative | Test System: UDS RAT HEPATOCYTES, Strain/Indicator: THY INCORP, Metabolic Activation: NONE, Method: AUTORADIOGRAPHY inactive; negative

COc1ccc(/C=N/n2nnc3c([nH]c4ccccc43)c2=O)cc1
inactive: [4] inactive; negative | Test System: AMES SALMONELLA TYPHIMURIUM, Strain/Indicator: TA102, Metabolic Activation: RAT, LIVER, S-9, AROCLOR 1254 (10%), Method: PREINCUBATION inactive; negative
active: [1] active; positive | Test System: AMES SALMONELLA TYPHIMURIUM, Strain/Indicator: TA97, Metabolic Activation: RAT, LIVER, S-9, AROCLOR 1254 (10%), Method: PREINCUBATION active; positive | [2] active; positive | Test System: AMES SALMONELLA TYPHIMURIUM, Strain/Indicator: TA98, Metabolic Activation: RAT, LIVER, S-9, AROCLOR 1254 (10%), Method: PREINCUBATION active; positive | [3] active; positive | Test System: AMES SALMONELLA TYPHIMURIUM, Strain/Indicator: TA100, Metabolic Activation: RAT, LIVER, S-9, AROCLOR 1254 (10%), Method: PREINCUBATION active; positive

Fc1cnc2ccc3cccnc3c2c1
active: Test System: AMES SALMONELLA TYPHIMURIUM, Strain/Indicator: TA100, Metabolic Activation: RAT, LIVER, S-9, PHENOBARBITAL AND 5,6-BENZOFLAVONE, Method: PREINCUBATION active; positive

Nc1ccc2nc3ccc(N)cc3nc2c1
inactive: [2] inactive; negative
active: [5] active; positive

NNC(N)=O
inactive: End Point: IN VIVO MICRONUCLEUS, Test System: POLYCHROMATIC ERYTHROCYTES, Species: MOUSE, Strain/Sex: BALB/C/MALE, Route: IP INJECTION inactive; negative | End Point: IN VIVO MICRONUCLEUS, Test System: POLYCHROMATIC ERYTHROCYTES, Species: MOUSE, Strain/Sex: CBA/MALE, Route: IP INJECTION inactive; negative

CCSc1cc(Cc2ccc(N)c(SCC)c2)ccc1N
inactive: [2] inactive; negative | [3] inactive; negative
active: [5] active; positive | Test System: AMES SALMONELLA TYPHIMURIUM, Strain/Indicator: TA100, Metabolic Activation: RAT, LIVER, S-9, PCB, Method: PREINCUBATION active; positive

O=C(O)c1cc([N+](=O)[O-])ccc1[N+](=O)[O-]
active: [2] active; positive | Test System: AMES SALMONELLA TYPHIMURIUM, Strain/Indicator: TA98, Metabolic Activation: RAT, LIVER, S-9, KANECHLOR 500, Method: PREINCUBATION active; positive
inactive: Test System: AMES SALMONELLA TYPHIMURIUM, Strain/Indicator: TA100, Metabolic Activation: RAT, LIVER, S-9, KANECHLOR 500, Method: PREINCUBATION inactive; negative

Cn1cc(C(=O)O)c(=O)c2ccc(/C=C/c3ccc([N+](=O)[O-])o3)nc21
active: Test System: AMES SALMONELLA TYPHIMURIUM, Strain/Indicator: TA100, Metabolic Activation: RAT, LIVER, S-9, KC500 OR PHENOBARBITAL, Method: LIQUID SUSPENSION active; positive
